Data from patent US8697690B2, “Isoindolone M1 receptor positive allosteric modulators” (Merck Sharp & Dohme Corp., priority 2010, dated 2014).

Target: T1, acetylcholine muscarinic M1 receptor (Homo sapiens, UniProt P11229)
T1 construct: expressed in transfected cells; host or cells: CHOnfat cells (CHO with NFAT reporter background), Geneticin-selected
T1 sequence (P11229 1-460): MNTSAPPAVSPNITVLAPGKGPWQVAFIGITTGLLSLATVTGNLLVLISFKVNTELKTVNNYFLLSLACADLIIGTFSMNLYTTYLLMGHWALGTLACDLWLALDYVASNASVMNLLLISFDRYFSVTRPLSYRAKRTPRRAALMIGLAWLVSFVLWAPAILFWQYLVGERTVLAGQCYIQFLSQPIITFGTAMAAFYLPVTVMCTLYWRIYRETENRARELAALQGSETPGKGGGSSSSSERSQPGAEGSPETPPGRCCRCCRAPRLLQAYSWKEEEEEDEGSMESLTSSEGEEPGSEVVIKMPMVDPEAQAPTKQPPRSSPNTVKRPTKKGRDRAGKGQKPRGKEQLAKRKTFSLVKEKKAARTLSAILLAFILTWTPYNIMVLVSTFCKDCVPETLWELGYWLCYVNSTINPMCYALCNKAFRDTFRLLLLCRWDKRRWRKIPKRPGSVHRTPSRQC
Experiment: muscarinic FLIPR assay: intracellular calcium in CHOnfat/hM1 cells, potentiation of EC20 acetylcholine
Assay type: cell-based
Settings: IP = inflection point calculated from FLIPR values, 4 min preincubation, then EC20 acetylcholine (3 nM final)
Experimental: The assay studies the effect of one or several concentrations of test compounds on basal or acetylcholine-stimulated Ca^2+ levels using FLIPR.
Compounds are prepared and subjected to a preincubation period of 4 min. Thereafter, a single EC20 concentration of acetylcholine is added to each well (3 nM final). The intracellular Ca^2+ level of each sample is measured and compared to an acetylcholine control to determine any modulatory activity.
Cells: CHOnfat/hM1, hM2, hM3 or hM4 cells are plated 24 hr before the assay at a density of 18,000 cells/well (100 μL) in a 384 well plate. CHOnfat/hM1 and CHOnfat/hM3 Growth Medium: 90% DMEM (Hi Glucose); 10% HI FBS; 2 mM L-glutamine; 0.1 mM NEAA; Pen-Strep; and 1 mg/ml Geneticin, are added. For M2Gqi5CHOnfat and M4Gqi5CHOnfat cells, an additional 600 ug/ml hygromycin is added.
Equipment: 384 well plate, 120 μL addition plate; 96-well Whatman 2 ml Uniplate Incubator, 37° C., 5% CO2; Skatron EMBLA-384 Plate Washer; Multimek Pipetting System; Genesis Freedom 200 System; Mosquito System; Temo Nanoliter Pipetting System; and FLIPR^384 Fluorometric Imaging Plate Reader System are used.
Buffers. Assay Buffer: Hanks Balanced Salt Solution, with 20 mM Hepes, 2.5 mM Probenecid (Sigma P-8761) first dissolved in 1 N NaOH, 1% Bovine Serum Albumin (Sigma A-9647). Dye Loading Buffer: Assay Buffer plus 1% Fetal Bovine Serum and Fluo-4AM/Pluronic Acid Mixture. 2 mM Fluo-4AM ester stock in DMSO (Molecular Probes F-14202) Concentration of 2 μM in buffer for a final concentration of 1 μM in Assay. 20% Pluronic Acid Solution stock, with concentration of 0.04% in Buffer, 0.02% in Assay.
65 μL of 2 mM Fluo-4AM are mixed with 130 μL of 20% Pluronic Acid. The resulting solution and 650 μL FBS is added to the assay buffer for a total volume of 65 mL. Positive Controls: 4-Br-A23187: 10 mM in DMSO; final concentration […]. Acetylcholine: 10 mM in water, working stock at both 20 μM and 30 μM in assay buffer, final concentration of 10 μM. This is used to check the maximum stimulation of the CHOK1/hM1 cells. 20 μM (2×) acetylcholine is added in the preincubation part of the assay, and the 30 μM (3×) stock is added in the second part. (EC20)Acetylcholine: 10 mM in water, working stock of 9 nM (3×), and final concentration in assay is 3 nM. This is used after the preincubation with test compounds. Addition of the EC20 Acetylcholine to each well with a test compound will ascertain any modulator activity. 24 wells contain 3 nM Acetylcholine alone as a control.
Determining Activity of Putative Compounds:
Screening Plate Compounds are titrated in 96-well plates (columns 2-11), 100% DMSO, started at a concentration of 15 mM (150× stock concentration), and 3-fold serial dilutions using Genesis Freedom200 System. Four 96-well plates are combined into a 384-well plate using Mosquito Nanoliter Pipetting System by transferring 1 μl of serial diluted compounds to each well, and 1 mM acetylcholine (100× stock concentration) were added as a control. Using Temo, 49 μl assay buffer is added to each well of the 384-well plate right before assay.
In a 96-well Whatman 2 ml Uniplate, 9 nM Acetylcholine (3×) is pipetted into wells corresponding to the screening compounds, and into control wells. The 30 μM acetylcholine control (3×) is added into control wells, and the 3× agonist plate is transferred into a 384 well plate.
Cells are washed three times with 100 μL of buffer, leaving 30 μL of buffer in each well. Using Multimek, 30 μL of Dye Loading Buffer is added into each well and incubated at 37° C., 5% CO2 for up to one hr.
After 60 min, the cells are washed three times with 100 μL of buffer, leaving 30 μL of buffer in each well. The cell plate, screening plate, and agonist addition plates are placed on the platform in the FLIPR and the door closed. A signal test to check background fluorescence and basal fluorescence signal is performed. Laser intensity is adjusted if necessary. […]

| EC50 | Structure (SMILES) |
| --- | --- |
| 99 nM | CN(C)CCC1c2c(cc(Cc3ccc(Cl)nc3)c3cccnc23)C(=O)N1[C@H]1CCCC[C@@H]1O (stereo partly drawn) [Example 23, 5-[(6-Chloropyridin-3-yl)methyl]-9-[2-(dimethylamino)ethyl]-8-[(1S,2S)-2-hydroxycyclohexyl]-8,9-dihydro-7H-pyrrolo[3,4-h]quinolin-7-one] |
| 7.4 nM | O=C1c2cc(Cc3ccc(Cl)nc3)c3cccnc3c2C(CCO)N1[C@H]1CCCC[C@@H]1O (stereo partly drawn) [Example 24, 5-[(6-Chloropyridin-3-yl)methyl]-8-[(1S,2S)-2-hydroxycyclohexyl]-9-(2-hydroxyethyl)-8,9-dihydro-7H-pyrrolo[3,4-h]quinolin-7-one] |
| 10.5 nM | O=C1c2cc(Cc3ccc(C4CC4)nc3)c3cccnc3c2CN1[C@H]1CCCC[C@@H]1O [Example 25, 5-[(6-Cyclopropylpyridin-3-yl)methyl]-8-[(1S,2S)-2-hydroxycyclohexyl-8,9-dihydro-7H-pyrrolo 3,4-h]quinolin-7-one] |
